Experimental data published in patent publication US11040981B2, “Pyrrolotriazine compounds and methods of inhibiting TAM kinases” (Syros Pharmaceuticals, Inc., priority 2017, dated 2021).
pIC50: −log10 of the molar value.

How the values were obtained:
MERTK = target: T1, MERTK (Homo sapiens, UniProt Q12866); experiment: TR-FRET kinase activity assay, MERTK; assay type: biochemical; conditions: for pIC50: TR-FRET activity assay, ATP at Km, 60 minutes, read-out: Mer IC50
T1 sequence (Q12866 21-999): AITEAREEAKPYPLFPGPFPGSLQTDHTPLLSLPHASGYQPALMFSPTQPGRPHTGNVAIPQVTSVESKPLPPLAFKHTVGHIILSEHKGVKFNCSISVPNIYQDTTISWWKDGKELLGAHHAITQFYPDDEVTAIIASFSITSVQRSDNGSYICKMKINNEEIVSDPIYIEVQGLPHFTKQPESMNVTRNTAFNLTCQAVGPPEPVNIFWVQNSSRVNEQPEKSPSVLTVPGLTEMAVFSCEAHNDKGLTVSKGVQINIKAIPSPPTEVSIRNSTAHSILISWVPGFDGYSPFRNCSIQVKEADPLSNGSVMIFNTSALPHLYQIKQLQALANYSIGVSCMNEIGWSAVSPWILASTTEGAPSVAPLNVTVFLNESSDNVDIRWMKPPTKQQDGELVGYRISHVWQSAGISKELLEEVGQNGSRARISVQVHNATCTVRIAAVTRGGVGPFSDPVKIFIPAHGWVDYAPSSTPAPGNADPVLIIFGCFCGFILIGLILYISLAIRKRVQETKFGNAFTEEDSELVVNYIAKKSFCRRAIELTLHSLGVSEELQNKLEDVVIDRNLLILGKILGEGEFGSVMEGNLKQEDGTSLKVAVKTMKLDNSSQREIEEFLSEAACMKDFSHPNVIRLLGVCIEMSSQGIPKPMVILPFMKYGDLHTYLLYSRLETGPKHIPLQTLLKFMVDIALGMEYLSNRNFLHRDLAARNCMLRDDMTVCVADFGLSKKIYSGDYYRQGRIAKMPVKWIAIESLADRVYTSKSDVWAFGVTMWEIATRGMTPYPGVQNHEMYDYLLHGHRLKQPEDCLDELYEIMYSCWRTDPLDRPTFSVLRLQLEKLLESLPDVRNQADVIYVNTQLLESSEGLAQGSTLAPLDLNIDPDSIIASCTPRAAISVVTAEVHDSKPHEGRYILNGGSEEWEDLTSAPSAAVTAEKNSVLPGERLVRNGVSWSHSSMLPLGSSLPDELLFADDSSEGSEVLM
In short: (§1)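 IC50 reflects the drop in TR-FRET between Eu anti-phosphotyrosine antibody and labelled peptide after a 60-minute room-temperature reaction. Buffer was 50 mM HEPES pH 7.5 with 10 mM MgCl2, 1 mM EGTA, 0.01% Brij 35 and 1 mM DTT, with ATP at Km per enzyme and EDTA quench.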

FLT3 = target: T2, FLT3 (Homo sapiens, UniProt P36888); experiment: TR-FRET kinase activity assay, FLT3; assay type: biochemical; conditions: ATP at Km, 60 minutes
T2 sequence (P36888 27-993): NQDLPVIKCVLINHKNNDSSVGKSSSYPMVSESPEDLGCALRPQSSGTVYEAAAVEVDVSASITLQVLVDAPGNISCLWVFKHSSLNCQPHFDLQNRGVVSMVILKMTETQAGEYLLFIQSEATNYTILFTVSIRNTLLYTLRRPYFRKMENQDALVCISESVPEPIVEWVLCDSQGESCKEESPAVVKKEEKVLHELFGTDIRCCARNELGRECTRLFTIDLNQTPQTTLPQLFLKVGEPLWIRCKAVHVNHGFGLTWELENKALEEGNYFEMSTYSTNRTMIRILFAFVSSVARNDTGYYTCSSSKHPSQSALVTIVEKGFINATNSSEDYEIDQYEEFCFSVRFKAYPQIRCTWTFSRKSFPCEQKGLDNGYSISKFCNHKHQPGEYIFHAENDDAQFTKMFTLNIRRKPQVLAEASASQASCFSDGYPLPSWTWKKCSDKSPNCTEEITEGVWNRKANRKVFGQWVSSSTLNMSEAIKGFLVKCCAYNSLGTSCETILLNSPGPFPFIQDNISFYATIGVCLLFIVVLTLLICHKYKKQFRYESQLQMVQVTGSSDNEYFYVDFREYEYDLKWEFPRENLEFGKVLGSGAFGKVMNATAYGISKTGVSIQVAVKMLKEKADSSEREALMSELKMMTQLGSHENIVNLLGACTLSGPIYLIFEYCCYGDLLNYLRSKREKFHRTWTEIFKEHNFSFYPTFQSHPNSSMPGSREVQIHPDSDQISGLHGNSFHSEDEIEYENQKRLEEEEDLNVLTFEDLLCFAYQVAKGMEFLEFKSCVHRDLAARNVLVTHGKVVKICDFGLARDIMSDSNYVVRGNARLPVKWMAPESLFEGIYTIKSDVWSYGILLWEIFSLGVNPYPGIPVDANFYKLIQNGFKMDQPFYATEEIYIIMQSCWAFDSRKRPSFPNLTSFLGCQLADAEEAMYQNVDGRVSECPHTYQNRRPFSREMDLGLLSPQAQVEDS
In short: as §1

[1] = ratio calculated as FLT3 IC50/Mer IC50
[2] = ratio of Mer to FLT3: FLT3 IC50/Mer IC50

SMILES | pIC50 (MERTK) | FLT3/Mer ratio (FLT3 IC50/Mer IC50) (MERTK; [1]) | pIC50 (FLT3) | FLT3/Mer ratio (FLT3 IC50/Mer IC50) (MERTK; [2])
CC(CC1COC1)Nc1ncc2c(-c3cnn(C4COC4)c3)cc([C@H]3CC[C@H](O)CC3)n2n1 (mixture of isomers) [Compound 447] | 5.00 to 6.00 | + (“+” represents a ratio of >2.0 and <10) | 5.00 to 6.00 | –
CC[C@H](C)Nc1ncc2c(-c3ccc(CN4CCN(C)CC4)cc3)cc([C@H]3CC[C@](C)(O)CC3)n2n1 (relative stereo) [Compound 132, (trans)-4-(2-((S)-sec-butylamino)-5-(4-((4-methylpiperazin-1-yl)methyl)phenyl)pyrrolo[2,1-f][1,2,4]triazin-7-yl)-1-methylcyclohexanol] | ≥ 7.00 | – | ≥ 7.00 | ++ (“++” represents a ratio of between 10 and 100)
COC[C@H](C)Nc1ncc2c(-c3cnn(C4COC4)c3)cc([C@H]3CC[C@](C)(O)CC3)n2n1 (single isomer, unassigned) [Compound 452] | ≥ 7.00 | +++ (“+++” represents a ratio of >100) | 6.00 to 7.00 | –
COC[C@H](C)Nc1ncc2c(-c3cnn(C4COC4)c3)cc([C@H]3CC[C@@](C)(O)CC3)n2n1 (single isomer, unassigned) [Compound 453] | ≥ 7.00 | +++ (“+++” represents a ratio of >100) | 6.00 to 7.00 | –
CC[C@H](C)Nc1ncc2c(-c3ccc(CN4CCN(C)CC4)cc3)cc(C3CCC(C)(O)CC3)n2n1 (stereo in doubt) [Compound 131, (cis)-4-(2-((S)-sec-butylamino)-5-(4-((4-methylpiperazin-1-yl)methyl)phenyl)pyrrolo[2,1-f][1,2,4]triazin-7-yl)-1-methylcyclohexanol] | ≥ 7.00 | – | ≥ 7.00 | +++ (“+++” represents a ratio of >100)
CCC1(Nc2ncc3c(-c4ccc(CN5CCN(C)CC5)cc4)cc([C@H]4CC[C@H](O)CC4)n3n2)CCC1 [Compound 126] | ≥ 7.00 | – | 5.00 to 6.00 | ++ (“++” represents a ratio of between 10 and 100)
CCCCC[C@H](C)Nc1ncc2c([C@H]3CC[C@@H](C(=O)N4CCN(C)CC4)CC3)cc([C@H]3CC[C@H](O)CC3)n2n1 [Compound 127] | ≥ 7.00 | – | 6.00 to 7.00 | +++ (“+++” represents a ratio of >100)
CC[C@H](C)Nc1ncc2c(C3=CCOCC3)cc([C@H]3CC[C@H](O)CC3)n2n1 [Compound 128] | ≥ 7.00 | – | ≥ 7.00 | ++ (“++” represents a ratio of between 10 and 100)
CC[C@H](C)Nc1ncc2c(C3CCOCC3)cc([C@H]3CC[C@H](O)CC3)n2n1 [Compound 129, (trans)-4-(2-((S)-sec-butylamino)-5-(tetrahydro-2H-pyran-4-yl)pyrrolo[2,1-f][1,2,4]triazin-7-yl)cyclohexanol] | ≥ 7.00 | – | 5.00 to 6.00 | +++ (“+++” represents a ratio of >100)
CC[C@H](C)Nc1ncc2c(C3=CCNCC3)cc([C@H]3CC[C@H](O)CC3)n2n1 [Compound 130] | ≥ 7.00 | – | ≥ 7.00 | +++ (“+++” represents a ratio of >100)
COC[C@H](C)Nc1ncc2c(-c3ccc(CC(=O)O)cc3)cc([C@H]3CC[C@H](O)CC3)n2n1 [Compound 133] | ≥ 7.00 | – | 6.00 to 7.00 | +++ (“+++” represents a ratio of >100)
COC[C@H](C)Nc1ncc2c(-c3ccc(-c4nn[nH]n4)cc3)cc([C@H]3CC[C@H](O)CC3)n2n1 [Compound 134] | ≥ 7.00 | – | 5.00 to 6.00 | +++ (“+++” represents a ratio of >100)
COC[C@H](C)Nc1ncc2c(-c3ccnc(N4CCOCC4=O)c3)cc([C@H]3CC[C@H](O)CC3)n2n1 [Compound 423] | ≥ 7.00 | +++ (“+++” represents a ratio of >100) | 6.00 to 7.00 | –
CNS(=O)(=O)c1ccc(-c2cc([C@H]3CC[C@H](O)CC3)n3nc(N[C@@H](C)COC(F)F)ncc23)cn1 [Compound 424] | ≥ 7.00 | +++ (“+++” represents a ratio of >100) | 6.00 to 7.00 | –
COC[C@H](C)Nc1ncc2c(C3=CCN(C(=O)OC(C)(C)C)CC3)cc([C@H]3CC[C@H](O)CC3)n2n1 [Compound 425] | ≥ 7.00 | +++ (“+++” represents a ratio of >100) | 6.00 to 7.00 | –
COC[C@H](C)Nc1ncc2c(-c3ccnc(N4CC5(COC5)C4)c3)cc([C@H]3CC[C@H](O)CC3)n2n1 [Compound 426] | ≥ 7.00 | +++ (“+++” represents a ratio of >100) | 6.00 to 7.00 | –
COC[C@H](C)Nc1ncc2c(-c3ccnc(N4CCC5(CC4)COC5)c3)cc([C@H]3CC[C@H](O)CC3)n2n1 [Compound 427] | ≥ 7.00 | +++ (“+++” represents a ratio of >100) | 6.00 to 7.00 | –
COC[C@H](C)Nc1ncc2c(-c3ccnc(N4CCC5(CCO5)CC4)c3)cc([C@H]3CC[C@H](O)CC3)n2n1 [Compound 430] | ≥ 7.00 | +++ (“+++” represents a ratio of >100) | 6.00 to 7.00 | –
COC[C@H](C)Nc1ncc2c(-c3ccnc(NC4CCOCC4)c3)cc([C@H]3CC[C@H](O)CC3)n2n1 [Compound 431] | ≥ 7.00 | +++ (“+++” represents a ratio of >100) | 6.00 to 7.00 | –
CCC(=O)N1CCN(c2cc(-c3cc([C@H]4CC[C@H](O)CC4)n4nc(N[C@@H](C)COC)ncc34)ccn2)CC1 [Compound 432] | ≥ 7.00 | +++ (“+++” represents a ratio of >100) | 6.00 to 7.00 | –
COC[C@H](C)Nc1ncc2c(-c3ccnc(N4CCNCC4)c3)cc([C@H]3CC[C@H](O)CC3)n2n1 [Compound 434] | ≥ 7.00 | +++ (“+++” represents a ratio of >100) | 6.00 to 7.00 | –
